From ChEMBL document CHEMBL2218064, “Structure-activity relationship data for chemical series of antagonists of the P2X7 receptor (Supplementary Bioactivity Data for publication CHEMBL1157114)”

target: T1, P2X purinoceptor 7 (Homo sapiens, UniProt Q99572); experiment: SUPPLEMENTARY: Inhibition of human P2X7 receptor assessed as inhibition of ethidium bromide accumulation. Same assay as CHEMBL1103860
T1 sequence (Q99572 whole entry): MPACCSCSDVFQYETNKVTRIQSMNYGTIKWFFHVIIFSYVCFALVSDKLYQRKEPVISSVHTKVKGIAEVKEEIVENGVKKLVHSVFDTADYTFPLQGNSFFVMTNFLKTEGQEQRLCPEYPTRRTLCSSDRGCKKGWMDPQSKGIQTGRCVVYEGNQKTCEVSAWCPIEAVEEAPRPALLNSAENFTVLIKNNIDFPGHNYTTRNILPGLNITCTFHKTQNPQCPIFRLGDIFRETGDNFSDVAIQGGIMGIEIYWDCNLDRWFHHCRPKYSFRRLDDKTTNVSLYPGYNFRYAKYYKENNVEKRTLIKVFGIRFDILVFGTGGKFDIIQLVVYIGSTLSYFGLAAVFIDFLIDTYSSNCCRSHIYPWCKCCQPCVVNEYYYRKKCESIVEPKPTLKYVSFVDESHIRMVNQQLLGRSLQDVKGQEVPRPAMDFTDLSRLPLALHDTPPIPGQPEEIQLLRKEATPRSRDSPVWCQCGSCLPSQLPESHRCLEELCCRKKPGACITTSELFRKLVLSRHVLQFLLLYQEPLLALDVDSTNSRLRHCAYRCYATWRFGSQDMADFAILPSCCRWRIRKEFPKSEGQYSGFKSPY

SMILES | IC50
O=C(c1ccc(Cl)cc1Cl)N1CCn2c(nnc2-c2ccc(F)cc2F)C1 | 100 nM
O=C(c1ccc(F)c(C(F)(F)F)c1)N1CCn2c(nnc2-c2cnccn2)C1 | 12.6 nM
O=C(c1ccccc1Cl)N1CCn2c(nnc2-c2cnccn2)C1 | 20 nM
O=C(c1ccccc1Cl)N1CCn2c(nnc2-c2ncccc2F)C1 | 31.6 nM
O=C(c1ccccc1C(F)(F)F)N1CCn2c(nnc2-c2ccccn2)C1 | 63.1 nM
O=C(c1ccc(Cl)c(F)c1Cl)N1CCn2c(nnc2-c2ccncn2)C1 | 20 nM
O=C(c1ccc(F)cc1Cl)N1CCn2c(nnc2-c2cccc(F)c2)C1 | 15.8 nM
O=C(c1ccc(F)cc1Cl)N1CCn2c(nnc2-c2ccc(F)c(F)c2)C1 | 50.1 nM
O=C(c1cccc(C(F)(F)F)c1Cl)N1CCn2c(nc(Br)c2-c2ccc(F)cc2)C1 | 31.6 nM
COc1cccc(-c2nnc3n2CCN(C(=O)c2ccc(F)cc2Cl)C3)c1 | 25.1 nM
O=C(c1ccc(F)cc1Cl)N1CCn2c(nnc2-c2cccc(Cl)c2)C1 | 12.6 nM
COc1ccccc1-c1nnc2n1CCN(C(=O)c1ccc(F)cc1Cl)C2 | 158 nM
O=C(c1ccc(F)c(Cl)c1Cl)N1CCn2c(nnc2-c2ccc(F)cn2)C1 | 1.58 nM
O=C(c1ccc(F)cc1Cl)N1CCn2c(nnc2-c2cccc(Cl)c2Cl)C1 | 100 nM
O=C(c1ccc(F)cc1Cl)N1CCn2c(nnc2-c2cccc(F)c2F)C1 | 39.8 nM
O=C(c1ccc(F)cc1Cl)N1CCn2c(nnc2-c2cccc3cc[nH]c23)C1 | 31.6 nM
O=C(c1cccc(C(F)(F)F)c1Cl)N1CCn2c(nc(Cl)c2Cl)C1 | 3.16 nM
O=C(c1ccc(Cl)cc1Cl)N1CCn2c(nc(Cl)c2Cl)C1 | 39.8 nM
O=C(c1ccc(F)cc1Cl)N1CCn2c(-c3ccc(F)cn3)cnc2C1 | 25.1 nM

SMILES | IC50
O=C(c1cccc(C(F)(F)F)c1Cl)N1CCn2c(nnc2C2CCCCC2)C1 | 50.1 nM
Cc1nc(-c2nnc3n2CCN(C(=O)c2ccc(F)cc2Cl)C3)cs1 | 158 nM
COCCc1nnc2n1CCN(C(=O)c1cccc(C(F)(F)F)c1Cl)C2 | 100 nM
O=C(c1cccc(C(F)(F)F)c1Cl)N1CCn2c(-c3cscn3)cnc2C1 | 1.26 nM
O=C(c1cccc(C(F)(F)F)c1Cl)N1CCn2c(nnc2C2CCCC2)C1 | 25.1 nM
O=C(c1ccc(Cl)cc1C(F)(F)F)N1CCn2c(nnc2-c2cnccn2)C1 | 20 nM
Cc1nn(-c2ccccc2)c(C)c1CC(=O)NCc1cc(C(F)(F)F)ccc1Cl | 501 nM
Cc1nn(-c2ccccc2)c(C)c1CC(=O)NCc1cc(F)ccc1C(F)(F)F | 501 nM
Cc1nn(-c2cccc(F)c2)c(C)c1CC(=O)NCc1ccc(F)cc1Cl | 200 nM
Cc1nn(-c2cccc(Cl)c2)c(C)c1CC(=O)NCc1ccc(F)cc1Cl | 316 nM
COc1cccc(-n2nc(C)c(CC(=O)NCc3ccc(F)cc3Cl)c2C)c1 | 501 nM
Cc1nn(-c2ccccc2Cl)c(C)c1CC(=O)NCc1ccc(F)cc1Cl | 100 nM
Cc1ccc(-n2nc(C)c(CC(=O)NCc3ccc(F)cc3Cl)c2C)cc1 | 126 nM
Cc1nn(-c2ccccn2)c(C)c1CC(=O)NCc1ccc(F)cc1Cl | 100 nM
Cc1nn(-c2ccccc2)c(C(C)C)c1CC(=O)NCc1ccc(F)cc1Cl | 631 nM
Cc1nn(-c2ccc(N3CCCC3=O)cc2)c(C)c1CC(=O)NCc1ccc(F)cc1Cl | 63.1 nM
Cc1nn(-c2ncc(Cl)cc2Cl)c(C)c1CC(=O)NCc1ccc(F)cc1Cl | 200 nM
Cc1nn(-c2ccncc2)c(C)c1CC(=O)NCc1ccc(F)cc1Cl | 63.1 nM
Cc1nn(-c2nccs2)c(C)c1CC(=O)NCc1ccc(F)cc1Cl | 316 nM

The remaining lines, values ahead:

IC50 | SMILES
158 nM | CCOc1ccc(-n2nc(C)c(CC(=O)NCc3ccc(F)cc3Cl)c2C)cc1
15.8 nM | O=C(c1ccc(Cl)cc1Cl)N1CCn2c(nnc2-c2ccc(F)cc2)C1
31.6 nM | O=C(c1ccc(Cl)cc1Cl)N1CCn2c(nnc2-c2ccncn2)C1
10 nM | O=C(c1ccccc1Cl)N1CCn2c(nnc2-c2cscn2)C1
31.6 nM | O=C(c1ccc(Cl)c(Cl)c1)N1CCn2c(nnc2-c2cnccn2)C1
31.6 nM | O=C(c1ccc(Cl)c(C(F)(F)F)c1)N1CCn2c(nnc2-c2cnccn2)C1
20 nM | O=C(c1ccc(F)c(Cl)c1)N1CCn2c(nnc2-c2cnccn2)C1
15.8 nM | Cc1cc(F)ccc1C(=O)N1CCn2c(nnc2-c2cnccn2)C1
158 nM | O=C(c1ccccc1Cl)N1CCn2c(nnc2-c2ccncn2)C1
39.8 nM | O=C(c1ccccc1Cl)N1CCn2c(nnc2-c2ccc(F)cn2)C1
79.4 nM | O=C(c1ccccc1Cl)N1CCn2c(nnc2-c2ccc(F)cc2)C1
2 nM | O=C(c1ccc(F)c(Cl)c1Cl)N1CCn2c(nnc2-c2cnccn2)C1
2 nM | O=C(c1ccc(Cl)c(F)c1Cl)N1CCn2c(nnc2-c2cnccn2)C1
2.51 nM | O=C(c1cccc(C(F)(F)F)c1Cl)N1CCn2c(nc(Cl)c2Br)C1
79.4 nM | O=C(c1cccc(C(F)(F)F)c1Cl)N1CCn2c(nc(C(F)(F)F)c2-c2ccc(F)cc2)C1
158 nM | O=C(c1ccc(Cl)cc1Cl)N1CCn2c(nc(C(F)(F)F)c2-c2ccc(F)cc2)C1
251 nM | O=C(c1ccc(F)cc1Cl)N1CCn2c(nnc2-c2cccc3cccnc23)C1
12.6 nM | O=C(c1cccc(C(F)(F)F)c1Cl)N1CCn2c(Cl)cnc2C1
3.98 nM | O=C(c1ccc(F)cc1Cl)N1CCn2c(-c3cnccn3)cnc2C1
200 nM | O=C(c1ccc(Cl)cc1Cl)N1CCn2c(Cl)cnc2C1
2 nM | O=C(c1cccc(C(F)(F)F)c1Cl)N1CCn2c(-c3cnccn3)cnc2C1
1.58 nM | O=C(c1cccc(C(F)(F)F)c1Cl)N1CCn2c(-c3nccs3)cnc2C1

IC50 | SMILES
31.6 nM | O=C(c1cccc(C(F)(F)F)c1Cl)N1CCn2c(nnc2C2CC2)C1
25.1 nM | CCCc1nnc2n1CCN(C(=O)c1cccc(C(F)(F)F)c1Cl)C2
2.51 nM | O=C(c1cccc(C(F)(F)F)c1Cl)N1CCn2c(nnc2-c2ccccc2O)C1
1.58 nM | O=C(c1cccc(C(F)(F)F)c1Cl)N1CCn2c(-c3ncccn3)cnc2C1
316 nM | Cn1ccnc1-c1nnc2n1CCN(C(=O)c1ccc(F)cc1Cl)C2
200 nM | O=C(c1ccc(F)cc1Cl)N1CCn2c(nnc2-c2cnc(Cl)cn2)C1
126 nM | Cc1ccc(C(=O)N2CCn3c(nnc3-c3cnccn3)C2)c(C)c1
316 nM | Cc1nn(-c2ccccc2)c(C)c1CC(=O)NCc1ccccc1Br
316 nM | Cc1nn(-c2ccccc2)c(C)c1CC(=O)NCc1cccc(F)c1F
316 nM | Cc1nn(-c2ccccc2)c(C)c1CC(=O)NCc1c(F)cccc1Cl
63.1 nM | Cc1nn(-c2ccccc2)c(C)c1CC(=O)NCc1c(Cl)cccc1Cl
631 nM | Cc1nn(-c2ccccc2)c(C)c1CC(=O)NCc1cc(Cl)ccc1Cl
158 nM | Cc1nn(-c2ccccc2)c(C)c1CC(=O)NCc1ccc(F)cc1C(F)(F)F
50.1 nM | Cc1nn(-c2ccc(F)cc2F)c(C)c1CC(=O)NCc1ccc(F)cc1Cl
158 nM | Cc1nn(-c2ccccc2F)c(C)c1CC(=O)NCc1ccc(F)cc1Cl
501 nM | COc1ccccc1-n1nc(C)c(CC(=O)NCc2ccc(F)cc2Cl)c1C
251 nM | Cc1c(CC(=O)NCc2ccc(F)cc2Cl)c(C(C)C)nn1-c1ccccc1
794 nM | Cc1nn(-c2ccc(C#N)cn2)c(C)c1CC(=O)NCc1ccc(F)cc1Cl
251 nM | Cc1nn(-c2ccc(Cl)cn2)c(C)c1CC(=O)NCc1ccc(F)cc1Cl
158 nM | Cc1nn(-c2ccccc2)c(C)c1CC(=O)NCc1ccc(Cl)c(Cl)c1
316 nM | Cc1nn(-c2ccccc2)c(C)c1CC(=O)NCc1ccc(F)c(C(F)(F)F)c1
